According to ChEMBL document CHEMBL1909046, “DrugMatrix in vitro pharmacology data”:

Legend:
[1] = target: T1, Alpha-1D adrenergic receptor (Homo sapiens, UniProt P25100); format: cell membranes, HEK293, Membrane; settings: hek293; note: in other assays of this panel Not Active means under 50% inhibition at 10 µM
T1 sequence (P25100 whole entry): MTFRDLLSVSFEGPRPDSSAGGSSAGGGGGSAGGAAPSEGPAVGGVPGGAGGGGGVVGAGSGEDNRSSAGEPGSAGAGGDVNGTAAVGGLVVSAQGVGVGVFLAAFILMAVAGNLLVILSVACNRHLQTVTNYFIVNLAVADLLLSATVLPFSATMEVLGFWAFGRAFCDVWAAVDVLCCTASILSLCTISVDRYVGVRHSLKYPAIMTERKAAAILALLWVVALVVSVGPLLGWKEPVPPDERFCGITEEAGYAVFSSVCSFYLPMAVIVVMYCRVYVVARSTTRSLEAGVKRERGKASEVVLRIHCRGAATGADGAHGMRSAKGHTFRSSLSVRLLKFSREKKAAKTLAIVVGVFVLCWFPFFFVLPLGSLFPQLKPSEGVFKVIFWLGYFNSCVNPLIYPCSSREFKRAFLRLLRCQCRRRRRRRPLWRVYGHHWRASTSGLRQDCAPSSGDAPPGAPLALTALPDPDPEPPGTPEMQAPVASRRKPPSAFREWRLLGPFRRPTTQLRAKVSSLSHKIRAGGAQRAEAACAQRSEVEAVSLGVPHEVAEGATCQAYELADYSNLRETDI

[2] = DRUGMATRIX: Atrial Natriuretic Factor (ANF) radioligand binding (ligand: [125I] ANF (rat)); format: cell membranes, Cavia porcellus, Dunkin-Hartley, Adrenal gland, Membrane; settings: Not Active = under 50% inhibition at 10 µM
[3] = DRUGMATRIX: Calcium Channel Type L, Dihydropyridine radioligand binding (ligand: [3H] Nitrendipine); format: cell membranes, Rattus norvegicus, Wistar, Cerebral cortex, Membrane; settings: Not Active = under 50% inhibition at 10 µM
[4] = target: T2, 5-hydroxytryptamine receptor 2C (Homo sapiens, UniProt P28335); assay: DRUGMATRIX: Serotonin (5-Hydroxytryptamine) 5-HT2C radioligand binding (ligand: [3H] Mesulergine); format: cell membranes, CHO-K1, Membrane; settings: Not Active = under 50% inhibition at 10 µM
T2 sequence (P28335 whole entry): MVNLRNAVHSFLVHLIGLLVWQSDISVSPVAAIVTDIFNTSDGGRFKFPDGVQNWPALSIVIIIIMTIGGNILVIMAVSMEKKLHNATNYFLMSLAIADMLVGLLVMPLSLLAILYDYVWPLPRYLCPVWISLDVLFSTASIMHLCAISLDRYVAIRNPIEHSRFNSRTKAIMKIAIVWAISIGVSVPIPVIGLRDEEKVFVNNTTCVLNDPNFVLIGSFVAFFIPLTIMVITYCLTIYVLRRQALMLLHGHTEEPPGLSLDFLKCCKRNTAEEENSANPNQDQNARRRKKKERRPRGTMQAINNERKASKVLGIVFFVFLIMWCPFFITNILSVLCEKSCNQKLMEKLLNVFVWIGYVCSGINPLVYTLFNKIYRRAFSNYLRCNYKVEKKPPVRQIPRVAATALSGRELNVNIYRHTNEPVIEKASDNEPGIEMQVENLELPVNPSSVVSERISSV

[5] = target: Sigma non-opioid intracellular receptor 1 (Homo sapiens, UniProt Q99720); assay: DRUGMATRIX: Sigma1 radioligand binding (ligand: [3H] Haloperidol); format: cell membranes, Jurkat, Membrane; settings: jurkat; Not Active = under 50% inhibition at 10 µM
Sigma non-opioid intracellular receptor 1, sequence (Q99720 whole entry): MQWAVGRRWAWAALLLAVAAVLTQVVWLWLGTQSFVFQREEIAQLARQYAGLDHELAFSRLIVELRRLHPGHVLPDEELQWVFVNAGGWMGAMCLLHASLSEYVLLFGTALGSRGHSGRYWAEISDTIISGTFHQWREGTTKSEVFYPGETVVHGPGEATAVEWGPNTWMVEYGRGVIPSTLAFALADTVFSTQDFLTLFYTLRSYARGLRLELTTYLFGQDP

Vasopressin V1a receptor = Vasopressin V1a receptor (Homo sapiens, UniProt P37288); format: cell membranes, Membrane; settings: hek293; note: in other assays of this panel Not Active means under 50% inhibition at 10 µM
Vasopressin V1a receptor, sequence (P37288 whole entry): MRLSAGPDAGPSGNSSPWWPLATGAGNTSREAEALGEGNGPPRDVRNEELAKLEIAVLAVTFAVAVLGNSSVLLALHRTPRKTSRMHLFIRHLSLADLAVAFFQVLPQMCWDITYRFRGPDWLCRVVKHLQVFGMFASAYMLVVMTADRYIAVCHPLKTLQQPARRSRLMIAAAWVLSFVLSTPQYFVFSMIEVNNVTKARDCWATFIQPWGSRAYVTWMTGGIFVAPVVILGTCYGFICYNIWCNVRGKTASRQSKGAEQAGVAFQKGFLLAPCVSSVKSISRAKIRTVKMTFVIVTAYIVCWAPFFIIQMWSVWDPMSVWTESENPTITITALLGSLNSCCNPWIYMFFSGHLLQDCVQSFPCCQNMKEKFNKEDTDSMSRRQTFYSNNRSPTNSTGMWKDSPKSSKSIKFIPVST

[6] = DRUGMATRIX: Calcium Channel Type L, Phenylalkylamine radioligand binding (ligand: [3H] (-)-Desmethoxyverapamil (D-888)); format: cell membranes, Rattus norvegicus, Wistar, Brain, Membrane; settings: Not Active = under 50% inhibition at 10 µM
[7] = target: C-C chemokine receptor type 2 (Homo sapiens, UniProt P41597); format: cell membranes, CHO-K1, Membrane; settings: cho-k1; note: in other assays of this panel Not Active means under 50% inhibition at 10 µM
C-C chemokine receptor type 2, sequence (P41597 whole entry): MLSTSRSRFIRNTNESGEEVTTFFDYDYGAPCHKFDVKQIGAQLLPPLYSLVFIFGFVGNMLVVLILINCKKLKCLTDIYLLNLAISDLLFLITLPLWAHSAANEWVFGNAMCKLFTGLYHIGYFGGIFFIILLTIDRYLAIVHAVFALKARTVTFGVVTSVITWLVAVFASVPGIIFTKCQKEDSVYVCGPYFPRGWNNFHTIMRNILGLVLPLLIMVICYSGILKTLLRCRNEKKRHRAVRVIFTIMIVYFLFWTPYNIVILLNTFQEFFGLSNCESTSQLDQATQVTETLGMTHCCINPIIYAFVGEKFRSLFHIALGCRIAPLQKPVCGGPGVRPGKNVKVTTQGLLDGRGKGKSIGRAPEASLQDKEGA

[8] = target: Prostaglandin G/H synthase 1 (Homo sapiens, UniProt P23219); assay: biochemical; format: tissue-based, Platelet; settings: platelet;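 note: inhibition of COX-1 enzyme activity, with arachidonic acid supplied as substrate; in other assays of this panel Not Active means under 50% inhibition at 10 µM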
Prostaglandin G/H synthase 1, sequence (P23219 whole entry): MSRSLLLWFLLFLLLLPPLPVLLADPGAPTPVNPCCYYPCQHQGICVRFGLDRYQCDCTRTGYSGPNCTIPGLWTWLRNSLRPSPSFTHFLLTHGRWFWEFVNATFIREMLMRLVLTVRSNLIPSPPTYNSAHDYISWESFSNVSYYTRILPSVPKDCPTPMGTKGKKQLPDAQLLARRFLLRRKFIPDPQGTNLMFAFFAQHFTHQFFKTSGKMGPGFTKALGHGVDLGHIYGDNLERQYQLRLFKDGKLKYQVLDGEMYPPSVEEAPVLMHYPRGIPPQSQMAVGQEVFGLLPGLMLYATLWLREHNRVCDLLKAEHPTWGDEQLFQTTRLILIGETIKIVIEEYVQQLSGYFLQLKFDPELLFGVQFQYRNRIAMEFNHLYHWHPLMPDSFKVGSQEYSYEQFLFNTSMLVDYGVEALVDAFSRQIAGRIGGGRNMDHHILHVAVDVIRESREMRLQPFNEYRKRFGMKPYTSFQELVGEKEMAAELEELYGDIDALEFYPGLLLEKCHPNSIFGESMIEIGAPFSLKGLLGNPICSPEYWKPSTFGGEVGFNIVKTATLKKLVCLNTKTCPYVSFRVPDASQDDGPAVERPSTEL

[9] = target: T3, Neuropeptide Y receptor type 1 (Homo sapiens, UniProt P25929); format: cell membranes, Membrane; settings: sk-n-mc; note: in other assays of this panel Not Active means under 50% inhibition at 10 µM
T3 sequence (P25929 whole entry): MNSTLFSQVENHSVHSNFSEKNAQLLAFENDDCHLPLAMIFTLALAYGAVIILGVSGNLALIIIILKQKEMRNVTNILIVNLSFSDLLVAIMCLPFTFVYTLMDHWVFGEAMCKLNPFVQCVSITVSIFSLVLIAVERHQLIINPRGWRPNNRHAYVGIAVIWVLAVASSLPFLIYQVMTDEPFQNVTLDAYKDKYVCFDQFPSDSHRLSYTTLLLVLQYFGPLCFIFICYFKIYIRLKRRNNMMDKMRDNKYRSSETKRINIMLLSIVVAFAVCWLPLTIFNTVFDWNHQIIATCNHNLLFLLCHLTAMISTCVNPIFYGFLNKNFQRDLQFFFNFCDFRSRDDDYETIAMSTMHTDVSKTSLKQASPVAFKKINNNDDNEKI

Progesterone receptor = target: T4, Progesterone receptor (Bos taurus, UniProt Q690N0); assay: DRUGMATRIX: Progesterone radioligand binding (ligand: [3H] R-5020); format: tissue-based, Uterus; settings: Not Active = under 50% inhibition at 10 µM
T4 sequence (Q690N0 whole entry): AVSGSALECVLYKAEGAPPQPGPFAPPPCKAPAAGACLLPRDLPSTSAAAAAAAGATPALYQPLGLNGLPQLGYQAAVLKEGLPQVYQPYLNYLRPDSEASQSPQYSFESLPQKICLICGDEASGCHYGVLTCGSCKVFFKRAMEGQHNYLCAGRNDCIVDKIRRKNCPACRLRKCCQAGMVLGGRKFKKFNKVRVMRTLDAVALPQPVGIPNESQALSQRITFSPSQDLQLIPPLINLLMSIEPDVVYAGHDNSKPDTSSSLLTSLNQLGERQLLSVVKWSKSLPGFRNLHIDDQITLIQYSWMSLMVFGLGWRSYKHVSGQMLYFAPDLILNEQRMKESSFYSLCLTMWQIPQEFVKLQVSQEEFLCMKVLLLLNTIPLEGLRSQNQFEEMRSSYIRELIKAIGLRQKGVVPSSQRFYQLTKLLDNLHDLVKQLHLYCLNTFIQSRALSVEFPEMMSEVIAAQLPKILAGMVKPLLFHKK

[10] = target: Mitogen-activated protein kinase 1 (Homo sapiens, UniProt P28482); assay: DRUGMATRIX: Protein Serine/Threonine Kinase, ERK2 enzyme inhibition (substrate: Myelin Basic Protein); design: species or system Escherichia coli; settings: Not Active = under 50% inhibition at 10 µM
Mitogen-activated protein kinase 1, sequence (P28482 whole entry): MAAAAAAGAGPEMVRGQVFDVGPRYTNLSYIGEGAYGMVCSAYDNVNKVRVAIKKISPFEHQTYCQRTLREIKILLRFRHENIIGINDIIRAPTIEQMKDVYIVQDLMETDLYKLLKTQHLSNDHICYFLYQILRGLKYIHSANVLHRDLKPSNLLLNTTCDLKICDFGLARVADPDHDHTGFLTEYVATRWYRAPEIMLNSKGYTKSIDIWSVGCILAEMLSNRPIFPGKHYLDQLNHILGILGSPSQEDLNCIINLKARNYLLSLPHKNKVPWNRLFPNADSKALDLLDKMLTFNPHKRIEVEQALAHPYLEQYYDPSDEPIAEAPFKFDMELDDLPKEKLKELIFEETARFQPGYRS

Cytochrome P450 2C19 = Cytochrome P450 2C19 (Homo sapiens, UniProt P33261); settings: bti-tn-5b1-4; note: in other assays of this panel Not Active means under 50% inhibition at 10 µM
Cytochrome P450 2C19, sequence (P33261 whole entry): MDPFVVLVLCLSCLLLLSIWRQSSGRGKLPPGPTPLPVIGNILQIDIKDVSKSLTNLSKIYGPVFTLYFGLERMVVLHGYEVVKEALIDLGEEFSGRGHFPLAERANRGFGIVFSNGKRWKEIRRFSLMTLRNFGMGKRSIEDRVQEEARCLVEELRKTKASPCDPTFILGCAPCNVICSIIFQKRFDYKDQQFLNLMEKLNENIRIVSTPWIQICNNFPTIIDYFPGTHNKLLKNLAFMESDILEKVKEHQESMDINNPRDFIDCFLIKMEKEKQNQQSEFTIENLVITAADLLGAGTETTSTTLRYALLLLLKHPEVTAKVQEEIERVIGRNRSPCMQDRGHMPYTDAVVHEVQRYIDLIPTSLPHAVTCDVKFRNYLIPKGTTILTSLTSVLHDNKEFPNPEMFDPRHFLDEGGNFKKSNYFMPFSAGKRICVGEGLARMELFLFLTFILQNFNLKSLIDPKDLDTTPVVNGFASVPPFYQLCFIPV

Row | SMILES | IC50 [1] | IC50 [2] | Ki [2] | IC50 [3] | Ki [3] | IC50 [5] | IC50 (Vasopressin V1a receptor) | IC50 [6] | Ki [6] | IC50 [7] | IC50 [8] | IC50 [9] | IC50 (Progesterone receptor) | IC50 (Cytochrome P450 2C19) | Ki (Cytochrome P450 2C19) | IC50 ([4]; cho-k1) | IC50 [10] | also measured
1 | Oc1c(Cl)cc(Cl)cc1Sc1cc(Cl)cc(Cl)c1O [BITHIONOL] | Not Active | Not Active | Not Active | Not Active | Not Active | Not Active | Not Active | Not Active | Not Active | Not Active | Not Active | Not Active | Not Active | Not Active | Not Active |  |  | IC50 ([4]; read-out: IC50): 8780 nM; Ki ([4]; read-out: Ki): 4600 nM; IC50 ([10]; read-out: IC50): 385 nM
2 | Cc1c(-c2ccccc2)oc2c(C(=O)OCCN3CCCCC3)cccc2c1=O [FLAVOXATE] | Not Active | Not Active | Not Active | Not Active | Not Active | Not Active | Not Active | Not Active | Not Active | Not Active | Not Active | Not Active | Not Active | Not Active | Not Active | Not Active | Not Active | 
3 | COc1ccc2c(c1)c(CC(=O)OCC(=O)O)c(C)n2C(=O)c1ccc(Cl)cc1 [ACEMETACIN] | Not Active | Not Active | Not Active | Not Active | Not Active | Not Active | Not Active | Not Active | Not Active | Not Active | Not Active | Not Active | Not Active | Not Active | Not Active | Not Active | Not Active | 
4 | COc1ccc([C@@H]2Sc3ccccc3N(CCN(C)C)C(=O)[C@@H]2OC(C)=O)cc1 [DILTIAZEM] | Not Active | Not Active | Not Active | Not Active | Not Active | Not Active | Not Active |  |  | Not Active | Not Active | Not Active | Not Active | Not Active | Not Active | Not Active | Not Active | IC50 ([6]; read-out: IC50): 630 nM; Ki ([6]; read-out: Ki): 612 nM
5 | NCC[C@H](O)C(=O)N[C@@H]1C[C@H](N)[C@@H](O[C@H]2O[C@H](CN)[C@@H](O)[C@H](O)[C@H]2O)[C@H](O)[C@H]1O[C@H]1O[C@H](CO)[C@@H](O)[C@H](N)[C@H]1O [AMIKACIN] | Not Active | Not Active | Not Active | Not Active | Not Active | Not Active | Not Active | Not Active | Not Active | Not Active | Not Active | Not Active | Not Active | Not Active | Not Active | Not Active | Not Active | 
6 | CC(C)(Oc1ccc(CCNC(=O)c2ccc(Cl)cc2)cc1)C(=O)O [BEZAFIBRATE] | Not Active | Not Active | Not Active | Not Active | Not Active | Not Active | Not Active | Not Active | Not Active | Not Active | Not Active | Not Active | Not Active | Not Active | Not Active | Not Active | Not Active | 
7 | CCCSc1ccc2nc(NC(=O)OC)[nH]c2c1 [ALBENDAZOLE] | Not Active | Not Active | Not Active | Not Active | Not Active | Not Active | Not Active | Not Active | Not Active | Not Active | Not Active | Not Active | Not Active | Not Active | Not Active | Not Active | Not Active | 
8 | C=C1C(=O)O[C@@H]2C3O[C@]3(C)CC/C=C(\C)CC[C@@H]12 (some centres undefined) | Not Active | Not Active | Not Active | Not Active | Not Active | Not Active | Not Active | Not Active | Not Active | Not Active | Not Active | Not Active | Not Active | Not Active | Not Active | Not Active | Not Active | 
9 | COc1c(N2CCNC(C)C2)c(F)cc2c(=O)c(C(=O)O)cn(C3CC3)c12 (centres undefined) [GATIFLOXACIN] | Not Active | Not Active | Not Active | Not Active | Not Active | Not Active | Not Active | Not Active | Not Active | Not Active | Not Active | Not Active | Not Active | Not Active | Not Active | Not Active | Not Active | 
